Consider two molecules from paper PMC13170702 (Nuclear medicine and biology, 2025).

For data set [1], the system named is 70 other CNS binding sites. As to conditions: at 1 μM; cited from earlier work.
For a further data set, the system named is Sprague-Dawley rats. The experiment in a line: GLP 14-day toxicological study. The data set is classed as in vivo. As to conditions: non-radioactive compound given on two consecutive days.

With `NC(CC(=O)Nc1ccc2c(c1)Cc1cc(F)ccc1-2)C(=O)O` (centres unmarked), the “binding at 70 other CNS binding sites” value in data set [1] was “no binding”.

Turning to `COC(=O)[C@@H](N)CC(=O)Nc1ccc2c(c1)Cc1cc(F)ccc1-2` [RP-115], the adverse effects entry with Sprague-Dawley rats is “no overt adverse effects”.
